The values that follow come from ChEMBL document CHEMBL1201862, “PubChem BioAssay data set” (2004).

Molecules are shown by their SMILES.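 Cells were grown in 96-well plates and exposed to each compound for 48 hours at five concentrations; endpoints were interpolated linearly between bracketing concentrations, or set to the highest concentration if not reached. GI50: concentration for 50% inhibition of growth.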 Active and inactive are the calls of the source. No stated cut-off is given here; in the data, active = GI50 up to about 1.1 µM and inactive = higher.

What all share (assay): NCI anticancer screen, dose series, 48 h
The test system of assay [1] is LOX IMVI.
The subject of assay [2] is HOP-62.
For assay [3], the system named is UACC-257.
Assay [4] relates to KM12.
The test system of assay [5] is HCT-116.
The subject of assay [6] is U-251.
For assay [7], the system named is A498.
Assay [8] relates to HT-29.
For assay [9], the system named is 786-0.
Assay [10] concerns NCI-H522.
Assay [11] concerns MOLT-4.
For assay [12], the system named is A549.
Assay [13] relates to MDA-MB-435.
Assay [14] deals with IGROV-1.
Assay [15] deals with HCT-15.
The test system of assay [16] is SK-MEL-2.
For assay [17], the system named is SW-620.
Assay [18] deals with SK-MEL-28.
Assay [19] concerns RPMI-8226.

As for `Cc1ccc(C(=O)Nc2ccc(CP(=O)(O)O)cc2CP(=O)(O)O)cc1N`, the GI50 in assay [1], in assay [2], in [3], in [4], in assay [5] and in assay [6] was > 100 µM (inactive) in each case. The GI50 in assay [7], in [8], in assay [9], in assay [10], in assay [11] and in assay [12] was > 100 µM (inactive) each time. For the same compound, the GI50 in assay [13] is > 100 µM (inactive); in [14], > 100 µM (inactive); in assay [15] it was over 100 µM; in assay [16], > 100 µM (inactive); in assay [17] it was > 100 µM (inactive); in [18], > 100 µM (inactive). In assay [19], the GI50 is > 100 µM (inactive).
In the case of `O=C(/N=N/c1ccccc1Br)NNc1ccccc1Br`, the GI50 in assay [1] was 91.4 µM (inactive); in [2], > 100 µM (inactive); in assay [3], > 100 µM (inactive); in [5], 24.7 µM (inactive); in assay [6], 60.8 µM (inactive); in assay [7] it was 58.7 µM (inactive). For the same compound, the GI50 is > 100 µM (inactive) in [8]; 72.1 µM (inactive) in assay [9]; 40.6 µM (inactive) in [10]; 25.6 µM (inactive) in assay [11]; 64.9 µM (inactive) in assay [12]; 84.5 µM (inactive) in assay [13]. Moreover, the GI50 in assay [14] is 55.6 µM (inactive); in [15] it was 61.2 µM; in assay [16], 35.4 µM (inactive); in [17], 67.1 µM (inactive); in [18] it was 53.7 µM (inactive); in [19], 33.8 µM (inactive).
For the compound `COc1ccc(/C=C2\C[C@H]3[C@@H]4CCC5=CC(=O)CC[C@]5(C)[C@H]4CC[C@]3(C)C2=O)cc1OC`, the GI50 is 11.9 µM (inactive) in assay [1]; 0.332 µM (active) in [2]; 4.6 µM (inactive) in assay [3]; 0.279 µM (active) in [4]; 8.05 µM (inactive) in assay [5]; 3.25 µM (inactive) in assay [7]. For the same compound, the GI50 in assay [8] was 6.87 µM (inactive); in assay [9] it was 35.8 µM (inactive); in assay [10] it was 2.74 µM (inactive); in assay [11], 3.44 µM (inactive); in [12], 5.58 µM (inactive); in [13] it was 5.48 µM (inactive). In addition, the GI50 in assay [14] is 10.4 µM (inactive); in assay [15], 9.25 µM; in [16] it was 4.13 µM (inactive); in [17] it was 21.1 µM (inactive); in assay [18], 40.7 µM (inactive); in [19] it was 3.89 µM (inactive).
Turning to `N=C(N)Nc1ccc(CC(N)C(=O)NCC(=O)C(CC(=O)O)c2ncc(NC(=O)C(F)(F)F)o2)cc1` (stereo not drawn), the GI50 in assay [1], in assay [2], in [3], in [4], in [5] and in assay [6] was > 25 µM (inactive) in each case. Besides, the GI50 in assay [7], in assay [8], in assay [9], in assay [10], in [12] and in assay [13] was > 25 µM (inactive) in each case. Further, the GI50 in assay [14] is > 25 µM (inactive); in assay [15] it was over 25 µM; in [16], > 25 µM (inactive); in [17], > 25 µM (inactive); in [18] it was > 25 µM (inactive); in [19], > 25 µM (inactive).
Take `CC1(C)OCC(C2CCC3(C)C4=CCC5C(C)(C)C(O)CCC5(C)C4CCC23C)CC(O)C1O` (stereo not drawn): the GI50 in [1] is 17.1 µM (inactive); in assay [3] it was 12.2 µM (inactive); in [4], 14.5 µM (inactive); in assay [5], 13.2 µM (inactive); in assay [6], 15.4 µM (inactive); in assay [7], 24.7 µM (inactive). Moreover, the GI50 was 18.2 µM (inactive) in assay [8]; 13.4 µM (inactive) in assay [9]; 20 µM (inactive) in assay [10]; 14.4 µM (inactive) in assay [11]; 16.5 µM (inactive) in [12]; 16.4 µM (inactive) in assay [13]. The GI50 in [14] is 18.7 µM (inactive); in [15], 15.8 µM; in [16] it was 16.3 µM (inactive); in assay [17], 17.8 µM (inactive); in [18] it was 17.3 µM (inactive); in [19], 6.75 µM (inactive).
As to `[N-]=[N+]=CC(=O)OCC1SCCCS1`, the GI50 in assay [1] is > 100 µM (inactive); in [2], 89.7 µM (inactive); in [3], > 100 µM (inactive); in assay [4], > 100 µM (inactive); in [5], > 100 µM (inactive); in assay [6], > 100 µM (inactive). The GI50 in [7], in assay [8], in [9], in [10], in assay [11] and in [13] was > 100 µM (inactive) each time. Besides, the GI50 was > 100 µM (inactive) in assay [14]; over 100 µM in assay [15]; > 100 µM (inactive) in assay [16]; > 100 µM (inactive) in assay [17]; > 100 µM (inactive) in assay [18]; > 100 µM (inactive) in assay [19].
As for `CC/C=C/c1cc2c(cc1O)CCC1C2CC[C@@]2(C)C1CC[C@@H]2O` (stereo partly drawn), the GI50 in [1] is 0.904 µM (active); in assay [3] it was 10.4 µM (inactive); in [4] it was 4.32 µM (inactive); in assay [5] it was 1.02 µM (active); in [6], 1.7 µM (inactive); in assay [7], 2.56 µM (inactive). Also, the GI50 was 7.93 µM (inactive) in assay [8]; 2.34 µM (inactive) in assay [9]; 0.475 µM (active) in assay [10]; 1.97 µM (inactive) in [11]; 4.12 µM (inactive) in assay [12]; 0.246 µM (active) in assay [13]. The GI50 was 4.37 µM (inactive) in assay [14]; 4.33 µM in [15]; 1.21 µM (inactive) in assay [16]; 1.12 µM (active) in assay [17]; 11.3 µM (inactive) in [18]; 1.89 µM (inactive) in assay [19].
`CCN(CC)CCOc1ccc(N2Cc3ccccc3C2=O)cc1`: the GI50 in assay [1], in [2], in [3], in assay [5], in [6] and in assay [7] was > 10 µM (inactive) each time. Besides, the GI50 in assay [8], in assay [9], in assay [10], in [11], in assay [12] and in assay [13] was > 10 µM (inactive) in each case. Also, the GI50 is > 10 µM (inactive) in assay [14]; over 10 µM in assay [15]; > 10 µM (inactive) in assay [16]; > 10 µM (inactive) in assay [17]; > 10 µM (inactive) in [18]; > 10 µM (inactive) in [19].
Take `COc1ccc(N)c(C(O)CCNC(C)=O)c1` (stereo not drawn): the GI50 in assay [1], in assay [3], in assay [4], in [5], in [6] and in assay [7] was > 100 µM (inactive) throughout. The GI50 in assay [8], in assay [9], in assay [10], in assay [11], in [12] and in [13] was > 100 µM (inactive) in each case. Also, the GI50 in assay [14] is > 100 µM (inactive); in assay [15], over 100 µM; in assay [16], > 100 µM (inactive); in [17], > 100 µM (inactive); in assay [19], > 100 µM (inactive).
Regarding `CC(C)(C)C(=O)Nc1cccc(-c2ccc[nH]2)n1`, the GI50 in assay [1] was > 100 µM (inactive); in assay [2], > 100 µM (inactive); in [3] it was > 84.9 µM (inactive); in assay [4] it was > 100 µM (inactive); in [5] it was > 100 µM (inactive); in assay [6] it was > 70.5 µM (inactive). Besides, the GI50 in assay [7] was > 100 µM (inactive); in [8], > 100 µM (inactive); in [9] it was > 100 µM (inactive); in assay [10], > 75 µM (inactive); in assay [12], > 100 µM (inactive); in [13] it was > 44.9 µM (inactive). Further, the GI50 in assay [14] is > 100 µM (inactive); in [15], over 100 µM; in assay [16], > 100 µM (inactive); in [17] it was > 100 µM (inactive); in assay [18], > 100 µM (inactive); in assay [19], < 0.01 µM (active).
Take `CCOc1ccccc1/N=N/C1C(=O)N(C(=O)CC(=O)Nc2ccccc2C)N=C1C` (stereo not drawn): the GI50 in assay [1] is > 100 µM (inactive); in assay [2], 19.9 µM (inactive); in [4] it was > 100 µM (inactive); in [5], 44.4 µM (inactive); in assay [6], 19.4 µM (inactive); in [7], 29.2 µM (inactive). The GI50 in [8] is > 100 µM (inactive); in assay [9] it was 46.9 µM (inactive); in [10], 61.2 µM (inactive); in assay [11] it was > 100 µM (inactive); in [12] it was 89.7 µM (inactive); in assay [13], > 100 µM (inactive). Moreover, the GI50 in assay [14] was 45 µM (inactive); in assay [15], 20.9 µM; in [16], 38.4 µM (inactive); in assay [17] it was > 100 µM (inactive); in [18], > 100 µM (inactive); in assay [19], 43.9 µM (inactive).
